Data from patent US9556217B2, “Amphiphilic compounds” (WISCONSIN ALUMNI RESEARCH FOUNDATION, priority 2012, dated 2017).

Biological target: T1, CMP-Sia (Mus musculus, UniProt Q61420)
T1 construct: GFP-His (C, cleaved yes); made in house; host or cells: Saccharomyces cerevisiae
T1 sequence (Q61420 1-336): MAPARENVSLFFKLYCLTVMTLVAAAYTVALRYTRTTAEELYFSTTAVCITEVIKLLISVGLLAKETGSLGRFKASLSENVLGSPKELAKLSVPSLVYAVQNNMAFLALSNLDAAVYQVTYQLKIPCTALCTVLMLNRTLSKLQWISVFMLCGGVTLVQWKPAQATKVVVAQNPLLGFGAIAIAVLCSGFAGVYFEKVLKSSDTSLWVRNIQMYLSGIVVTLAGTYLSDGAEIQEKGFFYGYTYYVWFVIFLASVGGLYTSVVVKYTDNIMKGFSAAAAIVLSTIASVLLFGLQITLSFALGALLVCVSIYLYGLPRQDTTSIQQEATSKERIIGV
Test: CPM thermal stability assay, CMP-Sia
Set-up: species or system murine
Conditions: CMC+0.04 wt %, 30° C., under the conditions used for the gel filtration analysis
Protocol: FIG. 6. CPM assays for (a) CMP-Sia, (b) GlpG and (c) SQR solubilized with each new amphiphile or DDM. The coumarin moiety of CPM is internally quenched by the maleimide unit, but the coumarin becomes fluorescent following reaction with Cys side chain thiol groups exposed upon protein unfolding. The CPM assay can therefore be used to monitor the extent of protein unfolding. CMP-Sia and GlpG were initially extracted from the native membrane with 1% DDM in PBS, 10 mM imidazole (pH 8.0), 150 mM NaCl, 10% glycerol, and isolated in 20 mM Tris (pH 7.5), 150 mM NaCl containing 0.03% DDM. SQR was extracted from the membrane using 2% C12E9 in 20 mM potassium phosphate (pH 7.4), 0.2 M EDTA, and isolated in 20 mM Tris (pH 7.6), 0.2% decyl-β-D-maltoside (DM). […] The “Relative amount of folded protein” in each case is defined as follows: 100% corresponds to the fluorescence emission intensity at time=0 min; 0% corresponds to the lowest value measured among the amphiphile-treated samples for each protein during the 130 min assay period. […] For GlpG and SQR, 0% is defined by the lowest value measured for protein solubilized with DDM. […]
CMP-Sia and GlpG were expressed as fusion proteins with a C-terminal GFP-His tag in Saccharomyces cerevisiae and Escherichia coli respectively. […]

CCCCCCCCCCCCO[C@@H]1O[C@H](CO)[C@@H](O[C@H]2O[C@H](CO)[C@@H](O)[C@H](O)[C@H]2O)[C@H](O)[C@H]1O [DDM, dodecyl-β-D-maltoside, reference compound]
Relative amount of folded protein (CPM assay), CMP-Sia: ~20%
